Structures can show the parent of a compound that is named as a salt.

T1 sequence (P34972 whole entry): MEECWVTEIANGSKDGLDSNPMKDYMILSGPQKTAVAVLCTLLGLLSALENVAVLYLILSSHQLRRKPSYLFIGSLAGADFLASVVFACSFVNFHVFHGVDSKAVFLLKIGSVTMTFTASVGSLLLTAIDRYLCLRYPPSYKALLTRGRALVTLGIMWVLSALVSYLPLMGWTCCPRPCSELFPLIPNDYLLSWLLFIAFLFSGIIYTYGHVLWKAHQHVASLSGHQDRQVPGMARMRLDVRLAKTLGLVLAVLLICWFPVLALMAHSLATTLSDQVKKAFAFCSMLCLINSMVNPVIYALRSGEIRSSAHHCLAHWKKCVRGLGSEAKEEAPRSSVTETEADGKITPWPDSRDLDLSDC

The first data set concerns the target T1, human CB2 receptors (Homo sapiens, UniProt P34972).
T1 construct: expressed in transfected cells; membranes prepared from them
Briefly: Affinity for human CB2 receptors: inhibition of [3H]-CP55940 binding to membranes of transfected CHO-K1 cells.
Conditions: not given
The procedure:
Study of the Affinity of the Compounds for Human Cannabinoid CB2 Receptors
The affinity of the compounds of the invention for human CB2 receptors was determined by measuring inhibition of [^3H]-CP55940 binding to membrane preparations produced from transfected CHO-K1 cells.
CHO-K1 cells stably expressing human CB2 receptors were cultured in RPMI 1640 medium supplemented with 10% foetal calf serum, 2 mM glutamine, 100 U/ml penicillin, 0.1 mg/ml streptomycin and 0.5 mg/ml G418. The cells were collected using 0.5 mM EDTA and centrifuged at 500 g for 5 min at 4° C. The cell pellet was resuspended in phosphate buffered saline (PBS) and centrifuged at 500 g for 5 min at 4° C. The pellet was resuspended in 50 mM tris buffer pH 7.4 and centrifuged at 500 g for 5 min at 4° C. The cells were lysed by sonication and centrifuged at 39,000 g for 10 min at 4° C. The pellet was resuspended in 50 mM tris buffer pH 7.4 and centrifuged at 50,000 g for 10 min at 4° C. The membranes obtained in this final pellet were stored at −80° C.
Competitive inhibition of the binding of [^3H]-CP55940 to CB2 receptors was determined in duplicate in 96-well polypropylene plates. Cell membranes (10 μg of protein/well) were incubated with [^3H]-CP55940 (1 nM) for 60 min at 25° C. in 50 mM Tris-HCl buffer, pH 7.4, containing 0.1% bovine serum albumin (BSA), 5 mM MgCl2, and 50 μg/ml of bacitracin.
Bound [^3H]-CP55940 was separated from free [^3H]-CP55940 by filtration through GF/C fibre glass filter plates (Unifilter, Packard) pre-impregnated with 0.1% polyethylenimine (P.E.I.), using a Filtermate 196 (Packard). The filters were washed with 50 mM Tris-HCl buffer, pH 7.4 at 0-4° C. and the radioactivity present was determined using a counter (Packard Top Count).
Specific binding was obtained by subtracting non-specific binding (determined in the presence of 0.1 μM WIN55212-2) from total binding. The data were analysed by computer-assisted nonlinear regression (MDL). For each test, the IC50 value was converted to a Ki value (inhibition constant) using the Cheng-Prusoff equation.
where [L] is the concentration of the radioligand used in the assay and Kd is the dissociation constant of the radioligand at equilibrium.
For the compound `COc1c(C(C)(C)C)cc(-c2csc(C3(N(C)C)CCOCC3)n2)cc1C(C)(C)C` [Example 2, {4-[4-(3,5-di-tert-butyl-4-methoxyphenyl)-1,3-thiazol-2-yl]tetrahydro-2H-pyran-4-yl}dimethylamine hydrochloride], the Ki was no more than 100 nM.
On the same count and under the same terms, then `CN(C)C1(c2nc(-c3cc(C(C)(C)C)c(O)c(C(C)(C)C)c3)cs2)CCSCC1` [Example 6, 2,6-di-tert-butyl-4-{2-[4-(dimethylamino)tetrahydro-2H-thiopyran-4-yl]-1,3-thiazol-4-yl}phenol hydrochloride], with no more than 100 nM; and `CN(C)C1(c2nc(-c3cc(C(C)(C)C)c(O)c(C(C)(C)C)c3)cs2)CCOC1` (stereo not drawn) [Example 7, 2,6-di-tert-butyl-4-{2-[3-(dimethylamino)tetrahydrofuran-3-yl]-1,3-thiazol-4-yl}phenol hydrochloride], with 100 to 500 nM.
On the same count and under the same terms, then `COc1c(Cl)cc(-c2csc(C3(N(C)C)CCOCC3)n2)cc1C(C)(C)C` [Example 13, {4-[4-(3-tert-butyl-5-chloro-4-methoxyphenyl)-1,3-thiazol-2-yl]tetrahydro-2H-pyran-4-yl}dimethylamine hydrochloride], with 100 to 500 nM; and `COc1ccc(-c2csc(C3(N(C)C)CCOCC3)n2)cc1C(C)(C)C` [Example 14, {4-[4-(3-tert-butyl-4-methoxyphenyl)-1,3-thiazol-2-yl]tetrahydro-2H-pyran-4-yl}dimethylamine hydrochloride], with 500 to 1000 nM; and `CN(C)C1(c2nc(-c3cc(C(C)(C)C)c(O)c(C(C)(C)C)c3)co2)CCOCC1` [Example 15, 2,6-di-tert-butyl-4-{2-[4-(dimethylamino)tetrahydro-2H-pyran-4-yl]-1,3-oxazol-4-yl}phenol hydrochloride], with no more than 100 nM.
On the same count and under the same terms, under `CC(C)(C)c1cc(-c2csc(C3(N4CCCCC4)CCOCC3)n2)cc(C(C)(C)C)c1O` [Example 20, 2,6-di-tert-butyl-4-[2-(4-piperidin-1-yltetrahydro-2H-pyran-4-yl)-1,3-thiazol-4-yl]phenol hydrochloride] stands no more than 100 nM; under `CC(C)(C)c1cc(-c2csc(C3(N4CCOCC4)CCOCC3)n2)cc(C(C)(C)C)c1O` [Example 21, 2,6-di-tert-butyl-4-[2-(4-morpholin-4-yltetrahydro-2H-pyran-4-yl)-1,3-thiazol-4-yl]phenol], 100 to 500 nM.
In turn, `COc1c(C(C)(C)C)cc(-c2nc(C3(N(C)C)CCOCC3)sc2C)cc1C(C)(C)C` [Example 25, {4-[4-(3,5-di-tert-butyl-4-methoxyphenyl)-5-methyl-1,3-thiazol-2-yl]tetrahydro-2H-pyran-4-yl}dimethylamine hydrochloride] returned a Ki of 100 to 500 nM.

Staying with this data set, now noted: [3H]-CP55940 (1 nM) competition, CHO-K1 membranes; IC50 converted to Ki by Cheng-Prusoff; read-out: affinity for the CB2 receptor.
In the case of `CN(C)C1(c2nc(-c3cc(C(C)(C)C)c(O)c(C(C)(C)C)c3)cs2)CCOCC1` [Example 4, 2,6-di-tert-butyl-4-{2-[4-(dimethylamino)tetrahydro-2H-pyran-4-yl]-1,3-thiazol-4-yl}phenol hydrochloride], the Ki was no more than 100 nM.
Regarding `CN(C)C1(c2nc(-c3ccc(C(C)(C)C)cc3)cs2)CCOCC1` [Example 8, {4-[4-(4-tert-butylphenyl)-1,3-thiazol-2-yl]tetrahydro-2H-pyran-4-yl}dimethylamine hydrochloride], the Ki lay within 100 to 500 nM.
Consider `CN(C)C1(c2nc(-c3cc(C(C)(C)C)cc(C(C)(C)C)c3)cs2)CCOCC1` [Example 11, {4-[4-(3,5-di-tert-butylphenyl)-1,3-thiazol-2-yl]tetrahydro-2H-pyran-4-yl}dimethylamine hydrochloride], for which the Ki fell in the range of 100 to 500 nM.
On to `CN(C)C1(c2nc(-c3ccc(Oc4ccccc4)cc3)cs2)CCOCC1` [Example 16, N,N-dimethyl-4-[4-(4-phenoxyphenyl)-1,3-thiazol-2-yl]tetrahydro-2H-pyran-4-amine hydrochloride], for which the Ki was in the range of 100 to 500 nM.
Same read-out and setting: under `CCNC1(c2nc(-c3cc(C(C)(C)C)c(O)c(C(C)(C)C)c3)cs2)CCOCC1` [Example 17, 2,6-di-tert-butyl-4-{2-[4-(ethylamino)tetrahydro-2H-pyran-4-yl]-1,3-thiazol-4-yl}phenol] stands 100 to 500 nM.
In the case of `CCN(CC)C1(c2nc(-c3cc(C(C)(C)C)c(O)c(C(C)(C)C)c3)cs2)CCOCC1` [Example 18, 2,6-di-tert-butyl-4-{2-[4-(diethylamino)tetrahydro-2H-pyran-4-yl]-1,3-thiazol-4-yl}phenol hydrochloride], the Ki is no more than 100 nM.
In the case of `CNC1(c2nc(-c3cc(C(C)(C)C)c(O)c(C(C)(C)C)c3)cs2)CCOCC1` [Example 19, 2,6-di-tert-butyl-4-{2-[4-(methylamino)tetrahydro-2H-pyran-4-yl]-1,3-thiazol-4-yl}phenol hydrochloride], the Ki was in the range of 100 to 500 nM.
Consider `CN1CCC(c2nc(-c3cc(C(C)(C)C)c(O)c(C(C)(C)C)c3)cs2)(N(C)C)CC1` [Example 23, 2,6-di-tert-butyl-4-{2-[4-(dimethylamino)-1-methylpiperidin-4-yl]-1,3-thiazol-4-yl}phenol hydrochloride], for which the Ki lay within 100 to 500 nM.
Still for that read-out and setting: under `CCN(CC)c1ccc(-c2csc(C3(N(C)C)CCOCC3)n2)cc1` [Example 28, (4-{4-[4-(diethylamino)phenyl]-1,3-thiazol-2-yl}tetrahydro-2H-pyran-4-yl)dimethylamine hydrochloride] stands 500 to 1000 nM.
`CN(C)C1(c2nc(-c3ccc(Cc4ccccc4)cc3)cs2)CCOCC1` [Example 29, {4-[4-(4-benzylphenyl)-1,3-thiazol-2-yl]tetrahydro-2H-pyran-4-yl}dimethylamine hydrochloride]: the Ki was 500 to 1000 nM.
For `CN(C)C1(c2nc(-c3ccc(Oc4ccc([N+](=O)[O-])cc4)cc3)cs2)CCOCC1` [Example 32, N,N-dimethyl-4-{4-[4-(4-nitrophenoxy)phenyl]-1,3-thiazol-2-yl}tetrahydro-2H-pyran-4-amine hydrochloride], the Ki lay in the range of 100 to 500 nM.
Still for that read-out and setting: under `CN(C)C1(c2nc(-c3ccc(Sc4ccccc4)cc3)cs2)CCOCC1` [Example 33, N,N-dimethyl-4-{4-[4-(phenylthio)phenyl]-1,3-thiazol-2-yl}tetrahydro-2H-pyran-4-amine hydrochloride] stands 500 to 1000 nM.

Test system in a further data set: not given
Assay: not given
Conditions: not given
What is called melting point is the temperature, or range, at which the solid turns liquid. The compound `COc1c(C)cc(-c2csc(C3(N(C)C)CCOCC3)n2)cc1C` (as salt: hydrochloride) came in with a melting point of 237.5 to 239 °C.
Same read-out and setting: then `CN(C)C1(c2nc(-c3ccc(Oc4cccc(Cl)c4C#N)cc3)cs2)CCOCC1` (as salt: hydrochloride), with 127 to 130 °C; and `COc1ccc(Oc2ccc(-c3csc(C4(N(C)C)CCOCC4)n3)cc2)cc1` (as salt: hydrochloride), with 120 to 121 °C.
In the case of `COc1c(-c2csc(C3(N(C)C)CCOCC3)n2)cc(C(C)(C)C)cc1C(C)(C)C` (as salt: hydrochloride), the melting point fell in the range of 199.4 to 200.7 °C.
Consider `COc1c(C(C)(C)C)cc(-c2csc(C3(N(C)C)CCOCC3)n2)cc1C(C)(C)C` (as salt: hydrochloride) [Example 2, {4-[4-(3,5-di-tert-butyl-4-methoxyphenyl)-1,3-thiazol-2-yl]tetrahydro-2H-pyran-4-yl}dimethylamine hydrochloride], for which the melting point was in the range of 215 to 216.7 °C.
On the same count and under the same terms, then `CN(C)C1(c2nc(-c3ccc(C(C)(C)C)cc3)cs2)CCOCC1` (as salt: hydrochloride) [Example 8, {4-[4-(4-tert-butylphenyl)-1,3-thiazol-2-yl]tetrahydro-2H-pyran-4-yl}dimethylamine hydrochloride], with 205 to 207 °C; and `CN(C)C1(c2nc(-c3cc(C(F)(F)F)cc(C(F)(F)F)c3)cs2)CCOCC1` (as salt: hydrochloride) [Example 9, (4-{4-[3,5-bis(trifluoromethyl)phenyl]-1,3-thiazol-2-yl}tetrahydro-2H-pyran-4-yl)dimethylamine hydrochloride], with 232.2 to 233 °C.
Still for that read-out and setting: then `COc1c(Cl)cc(-c2csc(C3(N(C)C)CCOCC3)n2)cc1C(C)(C)C` (as salt: hydrochloride) [Example 13, {4-[4-(3-tert-butyl-5-chloro-4-methoxyphenyl)-1,3-thiazol-2-yl]tetrahydro-2H-pyran-4-yl}dimethylamine hydrochloride], with 219.7 to 222.2 °C; and `COc1ccc(-c2csc(C3(N(C)C)CCOCC3)n2)cc1C(C)(C)C` (as salt: hydrochloride) [Example 14, {4-[4-(3-tert-butyl-4-methoxyphenyl)-1,3-thiazol-2-yl]tetrahydro-2H-pyran-4-yl}dimethylamine hydrochloride], with 232.7 to 233.5 °C.

(Values after US20110059970A1, “4-PHENYL-1,3-THIAZOLES AND 4-PHENYL-1,3-OXAZOLES DERIVATIVES AS CANNABINOID RECEPTOR LIGANDS” (IPSEN PHARMA S.A.S., priority 2007, published 2011).)
